Laboratory results: patent US20220347085A1, “REPELLENT COMPOSITION AND USES” (Université Bourgogne, priority 2019, published 2022)

Tested on: Drosophila suzukii
Assay: Anesthesia test, Drosophila suzukii
Type: in vivo
Conditions: female flies
Description: The devices used were similar to the devices for studying the courtship (example 1 above), except for the volume of the space into which the files were introduced, which was 45.24 or 22.62 cm^3. 9 discs of filter paper (Whatman, filter paper 42), each soaked in 10 μl of a composition comprising butyric acid and/or propionic acid and/or a derivative of propionic acid diluted in paraffin oil were deposited in the device. The different compositions used comprised, respectively, 2% propionic acid or 2% butyric acid or 5% ethyl propanoate or 10% ethyl propanoate or 30% ethyl propanoate. For each composition, the number of flies was, respectively, 30 and 24 males, 30 and 11 females for Drosophila melanogaster, and 24, 16 and 4 males, 28, 26, 6, 5 and 4 females for Drosophila suzukii. In order to avoid any contact of the flies with the soaked disks of paper, a gauze (netting) was arranged above said papers. The drosophilae could move freely on said gauze. The quantity of compound, butyric acid or propionic acid, or of ethyl propanoate (odor) volatilized in the behavior chamber was equivalent to that of the device used for the courtship. Likewise, the flies were never in direct contact with the composition (no taste perception), only with the volatile particles (olfactory perception). The flies tested were introduced simultaneously, by group, into the enclosure. Their behavior was filed for 10 minutes, and a time required for leading to anesthesia was calculated over this period, depending on the concentration of butyric acid or propionic acid or ethyl propanoate used. The flies were considered anesthetized when they stopped moving and fell on their side.

CCOC(=O)CC [ethyl propanoate]
time elapsed leading to anesthesia (5% in paraffin oil): approximately 6 minutes
time elapsed leading to anesthesia (10% in paraffin oil): approximately 4 minutes
time elapsed leading to anesthesia (30% in paraffin oil): 2 to 3 min
